pIC50: −log10 of the molar value. Where two headings read alike, the source gives them in different places.
What was measured:
IKKε = molecular target: T1, IKKε (Homo sapiens, UniProt Q14164); test: In-vitro IKKε kinase assay ([γ33]ATP filter-plate); assay type: biochemical
T1 construct: His-tag; made in house; host or cells: Sf9 insect cells
T1 sequence (Q14164 1-716): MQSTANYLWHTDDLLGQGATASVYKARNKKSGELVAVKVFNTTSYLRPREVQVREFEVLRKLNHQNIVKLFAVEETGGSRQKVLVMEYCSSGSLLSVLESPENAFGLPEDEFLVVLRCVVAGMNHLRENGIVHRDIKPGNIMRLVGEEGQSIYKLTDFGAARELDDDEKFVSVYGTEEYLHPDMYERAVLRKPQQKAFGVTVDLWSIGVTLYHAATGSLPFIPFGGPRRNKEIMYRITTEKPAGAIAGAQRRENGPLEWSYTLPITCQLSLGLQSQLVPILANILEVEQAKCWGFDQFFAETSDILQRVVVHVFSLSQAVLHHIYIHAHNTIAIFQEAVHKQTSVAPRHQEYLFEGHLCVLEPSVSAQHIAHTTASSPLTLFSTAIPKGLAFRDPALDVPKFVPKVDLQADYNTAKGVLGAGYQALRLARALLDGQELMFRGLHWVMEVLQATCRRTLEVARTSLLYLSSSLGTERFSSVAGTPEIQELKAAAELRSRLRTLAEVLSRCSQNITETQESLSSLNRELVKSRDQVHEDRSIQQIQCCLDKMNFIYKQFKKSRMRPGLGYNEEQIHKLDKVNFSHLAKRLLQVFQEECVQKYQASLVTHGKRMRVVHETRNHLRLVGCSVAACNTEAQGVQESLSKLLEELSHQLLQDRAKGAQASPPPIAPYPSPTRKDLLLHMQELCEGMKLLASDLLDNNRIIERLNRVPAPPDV
In short: (§1)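 His-tagged Sf9-expressed kinases at 0.1 or 0.02 μg/ml (TBK1) and 0.1 or 0.015 μg/ml (IKKε) for normal and sensitized formats, with myelin basic protein or casein substrate. ATP was at 2×Km (60 μM TBK1, 32 μM IKKε) plus 0.3 μCi [γ33]ATP. Reactions ran 30-45 min, were captured on P-81 filters, and counts were normalized to DMSO.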

TBK1 = molecular target: T2, TBK1 (Homo sapiens, UniProt Q9UHD2); test: In-vitro TBK1 kinase assay ([γ33]ATP filter-plate); assay type: biochemical
T2 construct: His-tag; made in house; host or cells: Sf9 insect cells
T2 sequence (Q9UHD2 1-729): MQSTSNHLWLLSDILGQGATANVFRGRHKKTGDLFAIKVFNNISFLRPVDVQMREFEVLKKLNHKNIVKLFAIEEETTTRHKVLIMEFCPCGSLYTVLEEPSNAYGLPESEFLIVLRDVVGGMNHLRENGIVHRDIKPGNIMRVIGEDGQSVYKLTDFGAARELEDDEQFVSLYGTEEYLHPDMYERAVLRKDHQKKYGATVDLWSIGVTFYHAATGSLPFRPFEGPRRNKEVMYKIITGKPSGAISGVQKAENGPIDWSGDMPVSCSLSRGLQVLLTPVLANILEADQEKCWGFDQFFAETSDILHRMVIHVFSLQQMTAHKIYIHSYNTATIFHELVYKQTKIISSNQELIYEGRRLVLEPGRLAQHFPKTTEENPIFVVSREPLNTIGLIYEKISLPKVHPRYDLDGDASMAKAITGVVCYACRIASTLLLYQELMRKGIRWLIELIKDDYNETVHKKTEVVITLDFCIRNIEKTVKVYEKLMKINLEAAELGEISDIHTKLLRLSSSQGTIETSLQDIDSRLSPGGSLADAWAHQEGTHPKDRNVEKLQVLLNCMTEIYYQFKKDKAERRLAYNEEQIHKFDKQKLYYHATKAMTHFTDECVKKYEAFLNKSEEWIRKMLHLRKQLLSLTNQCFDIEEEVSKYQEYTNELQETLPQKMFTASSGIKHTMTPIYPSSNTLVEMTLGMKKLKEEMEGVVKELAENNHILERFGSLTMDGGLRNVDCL
In short: as §1

[1] = text bins, read-out: IC50 for inhibition of the kinase activity of IKKε
[2] = text bins, read-out: IC50 for inhibition of the kinase activity of TBK1

pIC50 (IKKε; [1])	pIC50 (TBK1; [2])	pIC50 (IKKε; Table 3, read-out: IKKε IC50)	pIC50 (TBK1; Table 3, read-out: TBK1 IC50)	Compound
7.30 to 8.30	> 8.00	–	–	N#Cc1cc(-c2ccnc(Nc3ccc(N4CCOCC4)cc3)n2)ccc1OCc1cccnc1 [Example 168, 5-(2-{[4-(Morpholin-4-yl)phenyl]amino}pyrimidin-4-yl)-2-(pyridin-3-ylmethoxy) benzonitrile]
> 8.30	> 8.00	–	–	N#Cc1cc(-c2ccnc(Nc3ccc(NC(=O)NCCO)cc3)n2)ccc1OC1CCOCC1 [Example 11, 1-[4-({4-[3-cyano-4-(tetrahydro-2H-pyran-4-yloxy)phenyl]pyrimidin-2-yl}amino)phenyl]-3-(2-hydroxyethyl)urea]
7.30 to 8.30	7.00 to 8.00	–	–	COc1ccc(-c2ccnc(Nc3ccc(CN4CCN(C)CC4)cc3)n2)cc1C#N [compound 337, 2-Methoxy-5-[2-({4-[(4-methylpiperazin-1-yl)methyl]phenyl}amino)pyrimidin-4-yl]benzonitrile]
7.30 to 8.30	6.30 to 7.00	–	–	N#Cc1cccc(-c2ccnc(Nc3ccc4[nH]ncc4c3)n2)c1 [compound 387, 3-[2-(1H-Indazol-5-ylamino)pyrimidin-4-yl]benzonitrile]
7.30 to 8.30	7.00 to 8.00	–	–	COc1ccc(Nc2nccc(-c3ccc(OC)c(C#N)c3)n2)cc1Cl [compound 327, 5-{2-[(3-Chloro-4-methoxyphenyl)amino]pyrimidin-4-yl}-2-methoxybenzonitrile]
> 8.30	> 8.00	–	–	COCCNC(=O)c1ccc(Nc2nccc(-c3ccc(OCC4CC4)c(C#N)c3)n2)cc1 [compound 666]
6.30 to 7.30	7.00 to 8.00	–	–	CN(C)CCOc1ccc(Nc2nccc(-c3cccc(C#N)c3)n2)cc1 [Example 291, 3-[2-({4-[2-(Dimethylamino)ethoxy]phenyl}amino)pyrimidin-4-yl]benzonitrile]
7.30 to 8.30	> 8.00	–	–	CC(C)(C)OC(=O)NCc1ccc(Nc2nccc(-c3ccc(OC4CCOCC4)c(C#N)c3)n2)cc1 [compound 491, tert-butyl [4-({4-[3-cyano-4-(tetrahydro-2H-pyran-4-yloxy)phenyl]pyrimidin-2-yl}amino)benzyl] carbamate]
7.30 to 8.30	7.00 to 8.00	–	–	CC(C)C(=O)Nc1ccc(-c2ccnc(Nc3ccc(CC(=O)N4CCOCC4)cc3)n2)cc1C#N [compound 419, N-{2-cyano-4-[2-({4-[2-(morpholin-4-yl)-2-oxoethyl]phenyl}amino)pyrimidin-4-yl]phenyl}-2-methylpropanamide]

The next lines start with the compound.

Compound	pIC50 (IKKε; [1])	pIC50 (TBK1; [2])	pIC50 (IKKε; Table 3, read-out: IKKε IC50)	pIC50 (TBK1; Table 3, read-out: TBK1 IC50)
COc1cc(NC(=O)N[C@H]2CC[C@H](O)CC2)cc(Nc2nccc(-c3ccc(OC)c(C#N)c3)n2)c1 [Example 280, 1-(3-{[4-(3-Cyano-4-methoxyphenyl)pyrimidin-2-yl]amino}-5-methoxyphenyl)-3-(trans-4-hydroxycyclohexyl) urea]	7.30 to 8.30	7.00 to 8.00	–	–
N#Cc1cc(-c2ccnc(Nc3cccc(N4CCOCC4)c3)n2)ccc1OC1CCOCC1 [compound 585, 5-(2-{[3-(Morpholin-4-yl)phenyl]amino}pyrimidin-4-yl)-2-(tetrahydro-2H-pyran-4-yloxy)benzonitrile]	> 8.30	> 8.00	9.40	8.72
COc1cc(Nc2nccc(-c3ccc(OC4CCOCC4)c(C#N)c3)n2)ccc1S(=O)(=O)N1CCCC1 [compound 394, 5-(2-{[3-methoxy-4-(pyrrolidin-1-ylsulfonyl)phenyl]amino}pyrimidin-4-yl)-2-(tetrahydro-2H-pyran-4-yloxy)benzonitrile]	> 8.30	> 8.00	–	–
N#Cc1cc(-c2ccnc(Nc3ccc(N4CCOCC4)c(C4CC4)c3)n2)ccc1OC1CCOCC1 [compound 329, 5-(2-{[3-cyclopropyl-4-(morpholin-4-yl)phenyl]amino}pyrimidin-4-yl)-2-(tetrahydro-2H-pyran-4-yloxy)benzonitrile]	> 8.30	> 8.00	–	–
COc1cc(NC(=O)c2cccnc2)cc(Nc2nccc(-c3ccc(OC)c(C#N)c3)n2)c1 [compound 356, N-(3-{[4-(3-Cyano-4-methoxyphenyl)pyrimidin-2-yl]amino}-5-methoxyphenyl) pyridine-3-carboxamide]	7.30 to 8.30	7.00 to 8.00	–	–
COCCOC1CN(c2cc(Nc3nccc(-c4ccc(OC5CCOCC5)c(C#N)c4)n3)ccc2C)C1 [compound 596, 5-[2-({3-[3-(2-Methoxyethoxy)azetidin-1-yl]-4-methylphenyl}amino)pyrimidin-4-yl]-2-(tetrahydro-2H-pyran-4-yloxy)benzonitrile]	> 8.30	> 8.00	9.15	9.00
COc1ccc(-c2ccnc(Nc3ccc(S(=O)(=O)NCCCO)c(OC)c3)n2)cc1C#N [compound 303, 4-{[4-(3-Cyano-4-methoxyphenyl)pyrimidin-2-yl]amino}-N-(3-hydroxypropyl)-2-methoxybenzene-sulfonamide]	7.30 to 8.30	7.00 to 8.00	–	–
COc1ccc(-c2ccnc(Nc3ccc(OC4CCN(C)CC4)c(OC)c3)n2)cc1C#N [compound 302, 2-Methoxy-5-[2-({3-methoxy-4-[(1-methylpiperidin-4-yl)oxy]phenyl}amino)pyrimidin-4-yl]benzonitrile]	7.30 to 8.30	7.00 to 8.00	–	–
COc1ccc(Nc2nc(-c3ccc(OC4CCOCC4)c(C#N)c3)c3nc[nH]c3n2)cc1OC [compound 532, 5-{2-[(3,4-Dimethoxyphenyl)amino]-3H-purin-6-yl}-2-(tetrahydro-2H-pyran-4-yloxy)benzonitrile]	7.30 to 8.30	7.00 to 8.00	–	–
N#Cc1cc(-c2ccnc(Nc3ccc4scnc4c3)n2)ccc1OC1CCOCC1 [Example 15, 5-[2-(1,3-benzothiazol-5-ylamino)pyrimidin-4-yl]-2-(tetrahydro-2H-pyran-4-yloxy)benzonitrile]	> 8.30	> 8.00	–	–
N#Cc1cc(-c2ccnc(Nc3ccc(N4CCOCC4)cc3)n2)ccc1NCc1ccccc1 [Example 224]	7.30 to 8.30	7.00 to 8.00	–	–
CC(C)C(=O)Nc1ccc(-c2ccnc(Nc3cccc(CC(=O)N4CCN(C(C)C)CC4)c3)n2)cc1C#N [compound 423, N-(2-cyano-4-{2-[(3-{2-oxo-2-[4-(propan-2-yl)piperazin-1-yl]ethyl}phenyl)amino]pyrimidin-4-yl}phenyl)-2-methylpropanamide]	7.30 to 8.30	> 8.00	–	–
CC(=O)N1CCC(Oc2ccc(-c3ccnc(Nc4ccc(N5CCOCC5)cc4)n3)cc2C#N)CC1 [Example 86, 2-[(1-Acetylpiperidin-4-yl)oxy]-5-(2-{[4-(morpholin-4-yl)phenyl]amino}pyrimidin-4-yl)benzonitrile]	7.30 to 8.30	7.00 to 8.00	–	–
N#Cc1cc(-c2ccnc(Nc3ccc(N4CCOCC4)cc3)n2)ccc1OC1CCN(S(N)(=O)=O)CC1 [Example 80, 4-[2-cyano-4-(2-{[4-(morpholin-4-yl)phenyl]amino}pyrimidin-4-yl)phenoxy]piperidine-1-sulfonamide]	> 8.30	> 8.00	9.10	9.40
N#Cc1cc(-c2ccnc(Nc3ccc(N4CCOCC4)cc3)n2)ccc1OCC1CCCCO1 (stereo not shown) [Example 205, 5-(2-{[4-(Morpholin-4-yl)phenyl]amino}pyrimidin-4-yl)-2-(tetrahydro-2H-pyran-2-ylmethoxy) benzonitrile]	7.30 to 8.30	7.00 to 8.00	–	–
Cc1ccc(Nc2nccc(-c3ccc(OC4CCOCC4)c(C#N)c3)n2)cc1N1CCOCC1 [compound 590, 5-(2-{[4-Methyl-3-(morpholin-4-yl)phenyl]amino}pyrimidin-4-yl)-2-(tetrahydro-2H-pyran-4-yloxy)benzonitrile]	> 8.30	> 8.00	9.52	8.92

From patent US20150352108A1, “AMINO-PYRIMIDINE COMPOUNDS AS INHIBITORS OF TBK1 AND/OR IKK EPSILON” (Alzheimer's Institute of America, priority 2009, published 2015)
